Source: ChEMBL document CHEMBL2417405, “Synthesis, enzyme kinetics and computational evaluation of N-(β-D-glucopyranosyl) oxadiazolecarboxamides as glycogen phosphorylase inhibitors” (Bioorg Med Chem, 2013)
Active and inactive are the calls of the source. The calls are words filed in the database; no cut-off is given here.

Molecular target: T1, Glycogen phosphorylase, muscle form (Oryctolagus cuniculus) (UniProt P00489)
T1 sequence (whole entry): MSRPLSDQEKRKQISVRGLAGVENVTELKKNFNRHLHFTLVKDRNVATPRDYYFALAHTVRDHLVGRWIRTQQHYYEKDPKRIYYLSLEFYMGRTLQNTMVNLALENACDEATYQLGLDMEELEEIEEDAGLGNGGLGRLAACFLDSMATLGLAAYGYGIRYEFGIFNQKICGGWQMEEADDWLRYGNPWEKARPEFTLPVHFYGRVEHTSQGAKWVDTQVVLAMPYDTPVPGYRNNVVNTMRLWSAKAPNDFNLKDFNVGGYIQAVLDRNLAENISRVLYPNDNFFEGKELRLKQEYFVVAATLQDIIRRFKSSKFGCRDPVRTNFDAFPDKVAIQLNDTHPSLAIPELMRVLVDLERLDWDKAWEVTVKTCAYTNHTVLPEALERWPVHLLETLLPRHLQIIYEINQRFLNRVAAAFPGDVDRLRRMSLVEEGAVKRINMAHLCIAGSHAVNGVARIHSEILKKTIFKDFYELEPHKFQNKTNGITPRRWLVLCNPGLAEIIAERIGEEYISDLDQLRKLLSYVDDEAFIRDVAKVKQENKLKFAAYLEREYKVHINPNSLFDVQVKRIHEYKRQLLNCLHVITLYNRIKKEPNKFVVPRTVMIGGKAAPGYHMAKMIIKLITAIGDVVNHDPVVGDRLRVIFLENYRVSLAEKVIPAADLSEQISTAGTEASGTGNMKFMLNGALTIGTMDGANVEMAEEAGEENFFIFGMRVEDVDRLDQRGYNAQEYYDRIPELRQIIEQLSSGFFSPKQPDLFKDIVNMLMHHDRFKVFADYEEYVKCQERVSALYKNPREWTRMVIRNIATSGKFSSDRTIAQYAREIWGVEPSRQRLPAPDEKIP
Assay: Inhibition of rabbit skeletal muscle glycogen phosphorylase bat 625 uM by Lineweaver-Burk plot method

inhibition	SMILES
inactive	O=C(N[C@@H]1O[C@H](CO)[C@@H](O)[C@H](O)[C@H]1O)c1cn(-c2ccc3ccccc3c2)nn1
inactive	O=C(N[C@@H]1O[C@H](CO)[C@@H](O)[C@H](O)[C@H]1O)c1noc(-c2ccc3ccccc3c2)n1
inactive	O=C(N[C@@H]1O[C@H](CO)[C@@H](O)[C@H](O)[C@H]1O)c1cc(-c2ccc3ccccc3c2)no1
inactive	O=C(N[C@@H]1O[C@H](CO)[C@@H](O)[C@H](O)[C@H]1O)c1nc(-c2ccc3ccccc3c2)no1

Molecular target: T2, Glycogen phosphorylase, muscle form (Oryctolagus cuniculus, UniProt P00489)
T2 sequence (P00489 whole entry): T1 sequence (whole entry)
Description: Inhibition of rabbit skeletal muscle glycogen phosphorylase b by Lineweaver-Burk plot method

SMILES	Ki [µM]
O=C(N[C@@H]1O[C@H](CO)[C@@H](O)[C@H](O)[C@H]1O)c1noc(-c2cccc3ccccc23)n1	33
O=C(N[C@@H]1O[C@H](CO)[C@@H](O)[C@H](O)[C@H]1O)c1nnc(-c2ccc3ccccc3c2)o1	30
O=C(N[C@@H]1O[C@H](CO)[C@@H](O)[C@H](O)[C@H]1O)c1cc(-c2ccccc2)no1	172
O=C(N[C@@H]1O[C@H](CO)[C@@H](O)[C@H](O)[C@H]1O)c1cn(-c2ccccc2)nn1	75
O=C(N[C@@H]1O[C@H](CO)[C@@H](O)[C@H](O)[C@H]1O)c1nnc(-c2cccc3ccccc23)o1	172
O=C(N[C@@H]1O[C@H](CO)[C@@H](O)[C@H](O)[C@H]1O)c1nc(-c2cccc3ccccc23)no1	145
O=C(N[C@@H]1O[C@H](CO)[C@@H](O)[C@H](O)[C@H]1O)c1nnc(-c2ccccc2)o1	545
O=C(N[C@@H]1O[C@H](CO)[C@@H](O)[C@H](O)[C@H]1O)c1nc(-c2ccccc2)no1	104
O=C(N[C@@H]1O[C@H](CO)[C@@H](O)[C@H](O)[C@H]1O)c1noc(-c2ccccc2)n1	136
